Columns and labels:
[1] = tested on: SKOV3 cells expressing shScramble or shUQCR11; experiment: Viability of isogenic SKOV3 lines expressing shScramble or shUQCR11 treated with MTHFD2 inhibitor; format: cell-based; conditions: SKOV3 cells with UQCR11 knocked down vs shScramble
From the text: FIG. 2 Multi-objective metabolic flux analysis identifies MTHFD2 as a collateral lethal target in UQCR11-null ovarian cancers with in vitro, clinical and pan-cancer implications. a, Workflow elucidating multi-objective flux analysis algorithm comparing flux distributions of cancers with and without deletions for identification of collateral lethal pathways. b, Multi-objective metabolic Pareto frontier and metabolic fluxes of MTHFD1, MTHFD2, RNA and DNA syntheses in UQCR11-null and -intact models. Radar plots represent Pareto-optimal flux distributions from maximal biomass to maximal ATP maintenance (counterclockwise). c, mRNA expression of UQCR11 and MTHFD2 in parental ovarian cancer cell lines. Data presented as mean±s.d. (n=6), analysed using two-tailed Student's t-test. d, Protein expression of MTHFD2 and UQCR11. Representative immunoblots with β-actin as loading control. e, Cell viability after dox-induced shMTHFD2 knockdown. […] (n=3), analysed using two-way analysis of variance (ANOVA) with Dunn's correction. f, Viability of parental ovarian cancer lines treated with MTHFD2 inhibitor. […] Data analysed pairwise by log-rank test. k, Overall survival of patients with UCEC and low UQCR11 (bottom quartile) expression and high (top quartile) expression of MTHFD2 compared with patients with low UQCR11 and MTHFD2 (bottom quartile) expression. Data analysed by log-rank test. […]

[2] = tested on: isogenic SKOV3 cells (shScramble, shUQCR11); experiment: Nucleotide profiling after MTHFD2 inhibitor vs vehicle; format: cell-based
From the text: FIG. 14 Analysis of global metabolomics and nucleotide pathways of ovarian cancer lines with and without UQCR11 deletion. (a) Pathway enrichment analysis using metabolic pathways in the KEGG database comparing UQCR11-intact and -null ovarian cancer lines from the CCLE panel (n=50). Pathway coverage represents fraction of metabolites in the KEGG pathway that have available data. Data analyzed using weighted z-test for pathway analysis built into MetaboAnalyst 5.0. (b) Pathway enrichment analysis on all metabolite concentrations measured in SKOV3 (UQCR11-intact) and OVCAR8, HeyA8 and CAOV3 (UQCR11-null) cells for metabolites involved in nucleotide metabolism. Pathway coverage, that is, percentage of metabolites measured from each pathway are represented by a gradient color-scale. […] Data analyzed using weighted z-test for pathway analysis built into MetaboAnalyst 5.0. […] Data are combined from two independent experiments and analyzed using two-sample t-tests corrected for multiple hypothesis testing, built into MetaboAnalyst 5.0. […] (d) Metabolites involved in pyrimidine synthesis and salvage are measured in SKOV3 (UQCR11-intact) and OVCAR8, HeyA8 and CAOV3 (UQCR11-null) cells and overlaid onto the pyrimidine metabolic pathway map. […] Data are combined from two independent experiments and analyzed using two-sample t-tests corrected for multiple hypothesis testing, built into MetaboAnalyst 5.0 (n=6). […]

## Cc1c(N2CCN(C)[C@@H](C)C2)ccc2c3c(c(=O)oc12)CN(C(=O)c1ccc(NS(C)(=O)=O)c(OC(F)(F)F)c1)CC3 [DS18561882]
[1]
  GISO concentrations: significantly reduced
[2]
  differentially abundant metabolites (nucleotides): three out of 49
